Source: patent publication US11154563B2, “Immunoproteasome inhibitors” (Principia Biopharma Inc., priority 2017, dated 2021)

Assays:
[1] = molecular target: immunoproteasome LMP7/B5i subunit (Homo sapiens, UniProt P20618+P28062); assay: Caliper-based proteasome enzymatic activity assay, LMP7; assay type: biochemical; conditions: human recombinant immunoproteasome 0.3 nM, FAM-peptide substrate 1 μM, 3 h at rt
Method: (§1) A Caliper-based proteasome assay (Caliper Life Sciences, Hopkinton, Mass.) was used to measure inhibition of the immunoproteasome LMP7/B5i subunit, the immunoproteasome LPM2/β1i subunit, and the constitutive proteasome β5c unit for a compound of Formula (I). For LMP7 and β5c, serial dilutions of test compounds were incubated with either human recombinant immunoprotcasome or constitutive proteasome (0.3 nM enzyme) and a carboxyfluorescein (FAM)-labeled peptide substrate FAM-TYETFKSIMKKSPF-NH2 (1 μM) at it for 3 h. The reaction was then terminated with a buffer containing the known proteasome inhibitor carfilzomib at a concentration of 5 uM. For LMP2, serial dilutions of test compounds were incubated with human recombinant immunoproteasome proteasome (0.3 nM enzyme) and a carboxyfluorescein (FAM)-labeled peptide substrate FAM-[…]-NH2 (1 μM) at rt for 2 h. The reaction was then terminated with a buffer containing the known proteasome inhibitor ixazomib at a concentration of 6.7 uM. The reaction buffer was 20 mM Hepes pH 7.4, 0.01% bovine serum albumin, 0.015% SDS, 0.5 mM EDTA, 1%0/DMSO. The peptide cleavage reaction product was quantified on a Caliper LabChip 3000. Percent inhibition was calculated for each compound dilution and the concentration that produced 50% inhibition was calculated. This value is presented as the IC50.

[2] = molecular target: constitutive proteasome β5c unit (Homo sapiens, UniProt P20618+P28074); assay: Caliper-based proteasome enzymatic activity assay, β5c; assay type: biochemical; conditions: human recombinant constitutive proteasome 0.3 nM, FAM-peptide substrate 1 μM, 3 h at rt; read-out: β5c subunit IC50
Method: as §1

Compound	IC50 [1] [nM]	IC50 [2] [nM]
CC(C)(C=C(C#N)C(=O)N1CCCC[C@@H]1COC(=O)N[C@@H](Cc1ccc(Cl)cc1)B(O)O)N1CCC(F)(F)C1 [Example 79, ((R)-2-(4-chlorophenyl)-1-(((((R)-1-(2-cyano-4-(3,3-difluoropyrrolidin-1-yl)-4-methylpent-2-enoyl)piperidin-2-yl)methoxy)carbonyl)amino)ethyl)boronic acid]	2	578
CN(CC(F)F)C(C)(C)C=C(C#N)C(=O)N1CCCC[C@@H]1COC(=O)N[C@@H](Cc1ccccc1)B(O)O [Example 80, ((R)-1-(((((R)-1-(2-cyano-4-((2,2-difluoroethyl)(methyl)amino)-4-methylpent-2-enoyl)piperidin-2-yl)methoxy)carbonyl)amino)-2-phenylethyl)boronic acid]	2	1510
Cc1ccc(C[C@H](NC(=O)OC[C@@H]2CCCCCN2C(=O)C(C#N)=CC(C)(C)N2CCC(F)(F)C2)B(O)O)cc1 [Example 81, ((R)-1-(((((S)-1-(2-cyano-4-(3,3-difluoropyrrolidin-1-yl)-4-methylpent-2-enoyl)azepan-2-yl)methoxy)carbonyl)amino)-2-(p-tolyl)ethyl)boronic acid]	4.4	3840
Cc1ccc(C[C@H](NC(=O)OC[C@H]2CCCCCN2C(=O)C(C#N)=CC(C)(C)N2CCC(F)(F)C2)B(O)O)cc1 [Example 84, ((R)-1-(((((R)-1-(2-cyano-4-(3,3-difluoropyrrolidin-1-yl)-4-methylpent-2-enoyl)azepan-2-yl)methoxy)carbonyl)amino)-2-(p-tolyl)ethyl)boronic acid]	2.9	445
CN(C)C/C=C/C(=O)N1C[C@@H]2C[C@@H]2[C@@H]1COC(=O)N[C@@H](Cc1coc2ccccc12)B(O)O [Example 87, ((R)-2-(benzofuran-3-yl)-1-(((((1S,2R,5R)-3-((E)-4-(dimethylamino)but-2-enoyl)-3-azabicyclo[3.1.0]hexan-2-yl)methoxy)carbonyl)amino)ethyl)boronic acid]	13	1010
CC#CC(=O)N1C[C@@H]2C[C@@H]2[C@@H]1COC(=O)N[C@@H](Cc1coc2ccccc12)B(O)O [Example 88, ((R)-2-(benzofuran-3-yl)-1-(((((1S,2R,5R)-3-(but-2-ynoyl)-3-azabicyclo[3.1.0]hexan-2-yl)methoxy)carbonyl)amino)ethyl)boronic acid]	7.1	263
C=CC(=O)N1C[C@H](F)C[C@@H]1COC(=O)N[C@@H](Cc1ccccc1)B(O)O [Example 89, ((R)-1-(((((2R,4R)-1-acryloyl-4-fluoropyrrolidin-2-yl)methoxy)carbonyl)amino)-2-phenylethyl)boronic acid]	73	1850
C=CC(=O)N1CC(F)(F)C[C@@H]1COC(=O)N[C@@H](Cc1coc2ccccc12)B(O)O [Example 91, ((R)-1-(((((R)-1-acryloyl-4,4-difluoropyrrolidin-2-yl)methoxy)carbonyl)amino)-2-(benzofuran-3-yl)ethyl)boronic acid]	2.5	320
Cc1ccc(C[C@H](NC(=O)OC[C@H]2[C@H]3C[C@H]3CN2C(=O)C(C#N)=CC2(C)CCOCC2)B(O)O)cc1 [Example 92, ((R)-1-(((((1S,2R,5R)-3-(2-cyano-3-(4-methyltetrahydro-2H-pyran-4-yl)acryloyl)-3-azabicyclo[3.1.]hexan-2-yl)methoxy)carbonyl)amino)-2-(p-tolyl)ethyl)boronic acid]	1.9	2240
C=CC(=O)N1CCOC[C@@H]1COC(=O)N[C@@H](Cc1coc2ccccc12)B(O)O [Example 93, ((R)-1-(((((R)-4-acryloylmorpholin-3-yl)methoxy)carbonyl)amino)-2-(benzofuran-3-yl)ethyl)boronic acid]	3	165
CC(C)(C=C(C#N)C(=O)N1CCOC[C@@H]1COC(=O)N[C@@H](Cc1ccccc1)B(O)O)N1CCC(F)(F)C1 [Example 94, ((R)-1-(((((R)-4-(2-cyano-4-(3,3-difluoropyrrolidin-1-yl)-4-methylpent-2-enoyl)morpholin-3-yl)methoxy)carbonyl)amino)-2-phenylethyl)boronic acid]	2	1760
C=CC(=O)N1C[C@@H]2C[C@@H]2[C@@H]1COC(=O)N[C@@H](Cc1ccc(C)cc1)B(O)O [Example 95, ((R)-1-(((((1S,2R,5R)-3-acryloyl-3-azabicyclo[3.1.0]hexan-2-yl)methoxy)carbonyl)amino)-2-(p-tolyl)ethyl)boronic acid]	37	3390
COc1cccc(C[C@H](NC(=O)OC[C@H]2CCCCN2C(=O)C(C#N)=CC(C)(C)N2CCC(F)(F)C2)B(O)O)c1 [Example 96]	2.7	> 5000
CN(CC(F)(F)F)C(C)(C)C=C(C#N)C(=O)N1CCCC[C@@H]1COC(=O)N[C@@H](Cc1ccccc1)B(O)O [Example 97, ((R)-1-(((((R)-1-(2-cyano-4-methyl-4-(methyl(2,2,2-trifluoroethyl)amino)pent-2-enoyl)piperidin-2-yl)methoxy)carbonyl)amino)-2-phenylethyl)boronic acid]	5	3970
CC(C)(C=C(C#N)C(=O)N1CCOC[C@@H]1COC(=O)N[C@@H](CCc1ccccc1)B(O)O)N1CCC(F)(F)C1 [Example 98, ((R)-1-(((((R)-4-(2-cyano-4-(3,3-difluoropyrrolidin-1-yl)-4-methylpent-2-enoyl)morpholin-3-yl)methoxy)carbonyl)amino)-3-phenylpropyl)boronic acid]	3.5	3270
C=CC(=O)N1C[C@@H]2C[C@@H]2[C@@H]1COC(=O)N[C@@H](Cc1ccccc1)B(O)O [Example 99, ((R)-1-(((((1S,2R,5R)-3-acryloyl-3-azabicyclo[3.1.0]hexan-2-yl)methoxy)carbonyl)amino)-2-phenylethyl)boronic acid]	68	1990
C=CC(=O)N1C[C@@H](F)C[C@@H]1COC(=O)N[C@@H](Cc1ccccc1)B(O)O [Example 100, ((R)-1-(((((2R,4S)-1-acryloyl-4-fluoropyrrolidin-2-yl)methoxy)carbonyl)amino)-2-phenylethyl)boronic acid]	21	530
CC(C)(C=C(C#N)C(=O)N1CCCC[C@@H]1COC(=O)N[C@@H](CCc1ccccc1)B(O)O)N1CCC(F)(F)C1 [Example 101, ((R)-1-(((((R)-1-(2-cyano-4-(3,3-difluoropyrrolidin-1-yl)-4-methylpent-2-enoyl)piperidin-2-yl)methoxy)carbonyl)amino)-3-phenylpropyl)boronic acid]	1.7	> 5000
CC(C)(/C=C(/C#N)C(=O)N1CCCC[C@@H]1COC(=O)N[C@@H](Cc1ccccc1)B(O)O)N1CCC(F)(F)C1 [Example 103, ((R)-1-(((((R)-1-((Z)-2-cyano-4-(3,3-difluoropyrrolidin-1-yl)-4-methylpent-2-enoyl)piperidin-2-yl)methoxy)carbonyl)amino)-2-phenylethyl)boronic acid]	5.3	2310
CC(C)(C=C(C#N)C(=O)N1C[C@@H]2C[C@@H]2[C@@H]1COC(=O)N[C@@H](CCc1ccccc1)B(O)O)N1CCC(F)(F)C1 [Example 104, ((R)-1-(((((1S,2R,5R)-3-(2-cyano-4-(3,3-difluoropyrrolidin-1-yl)-4-methylpent-2-enoyl)-3-azabicyclo[3.1.0]hexan-2-yl)methoxy)carbonyl)amino)-3-phenylpropyl)boronic acid]	1.4	> 5000
CC(C)(C=C(C#N)C(=O)N1CCCC[C@@H]1COC(=O)N[C@@H](Cc1cccc2ccccc12)B(O)O)N1CCC(F)(F)C1 [Example 106, ((R)-1-(((((R)-1-(2-cyano-4-(3,3-difluoropyrrolidin-1-yl)-4-methylpent-2-enoyl)piperidin-2-yl)methoxy)carbonyl)amino)-2-(naphthalen-1-yl)ethyl)boronic acid]	5.2	2240
CC(C)(C=C(C#N)C(=O)N1CCCC[C@@H]1COC(=O)N[C@@H](Cc1ccccc1C#N)B(O)O)N1CCC(F)(F)C1 [Example 107, ((R)-1-(((((R)-1-(2-cyano-4-(3,3-difluoropyrrolidin-1-yl)-4-methylpent-2-enoyl)piperidin-2-yl)methoxy)carbonyl)amino)-2-(2-cyanophenyl)ethyl)boronic acid]	111	> 5000
CC(C)(C=C(C#N)C(=O)N1C[C@@H]2C[C@@H]2[C@@H]1COC(=O)N[C@@H](Cc1ccc(F)cc1)B(O)O)N1CCC(F)(F)C1 [Example 108]	0.9	830
C=CC(=O)N1C[C@@H]2C[C@@H]2[C@@H]1COC(=O)N[C@@H](Cc1ccc(F)cc1)B(O)O [Example 109, ((R)-1-(((((1S,2R,5R)-3-acryloyl-3-azabicyclo[3.1.0]hexan-2-yl)methoxy)carbonyl)amino)-2-(4-fluorophenyl)ethyl)boronic acid]	6.4	3320
